Among the test systems are HOP-62 NSCLC; TK-10 renal; UACC-257 melanoma; SF-268 CNS; KM12 colon; MDA-MB-231 breast; HL-60(TB) leukemia; OVCAR-3 ovarian; NCI-H460 lung; NCI-H522 lung.
What all share (test): NCI tumour cell line growth inhibition, 48 h

Each structure is given as a SMILES string. “And” between values parts separate entries of the source, which are not always exact repeats. Identical values can stand only once.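 Dose response: 5 concentrations. Exposure: 48 h. Format: 96-well plates. Endpoint: linear interpolation; highest concentration if not reached. GI50 is the concentration that inhibits growth by half. The concentration for full growth arrest is given as TGI.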 A value given as a limit tells only on which side of the number the result lay.

On to `COc1cc(C2C(C#N)=C(N)Oc3cc(O)ccc32)cc(OC)c1OC` (centres undefined), for which the GI50 in the assay with HOP-62 NSCLC is 0.746 µM; in the assay on TK-10 renal, 8.61 µM; in the assay on UACC-257 melanoma, 0.401 µM; with SF-268 CNS, 14.5 µM; in the assay on KM12 colon, 0.454 µM; in the assay on MDA-MB-231 breast, 1.85 µM. Further, the GI50 was 0.311 µM in the assay with HL-60(TB) leukemia, 0.317 µM in the assay on OVCAR-3 ovarian, 0.382 µM in the assay with NCI-H460 lung and 0.281 µM with NCI-H522 lung. Further, the TGI with HOP-62 NSCLC is above 100 µM; in the assay on TK-10 renal, above 100 µM; in the assay with UACC-257 melanoma, above 100 µM; in the assay on SF-268 CNS, above 100 µM; in the assay with KM12 colon, 63.3 µM; in the assay on MDA-MB-231 breast, above 100 µM. For the same compound, the TGI in the assay with HL-60(TB) leukemia is above 100 µM; in the assay with OVCAR-3 ovarian, 0.851 µM; with NCI-H460 lung, above 75.2 µM; in the assay with NCI-H522 lung it was 3.85 µM.
On to `Cc1nc2cc(N)c(Cl)cc2[nH]1`, for which the TGI with HOP-62 NSCLC, in the assay on TK-10 renal, with UACC-257 melanoma, with SF-268 CNS, in the assay with KM12 colon and in the assay on MDA-MB-231 breast was above 100 µM throughout. The TGI with HL-60(TB) leukemia, in the assay with OVCAR-3 ovarian, in the assay on NCI-H460 lung and in the assay with NCI-H522 lung was above 100 µM in each case.
Consider `NC[C@@](O)(c1ccc(Cl)cc1)c1ccc(-c2cn[nH]c2)cc1`, for which the GI50 was 2.04 µM and 0.89 µM in the assay on HOP-62 NSCLC; 0.083 µM and 0.268 µM with TK-10 renal; 1.7 µM with UACC-257 melanoma; 1.24 µM and 1.28 µM with SF-268 CNS; 3.44 µM and 3.48 µM in the assay with KM12 colon; 3.24 µM and 2.76 µM with MDA-MB-231 breast. In addition, the GI50 in the assay with HL-60(TB) leukemia was 1.7 µM; in the assay on OVCAR-3 ovarian, 3.22 µM and 1.96 µM; in the assay with NCI-H460 lung it was 3.08 µM and 2.83 µM; in the assay with NCI-H522 lung, 1.45 µM. Also, the TGI in the assay on HOP-62 NSCLC was above 100 µM; with TK-10 renal, 0.875 µM and 1.54 µM; in the assay with UACC-257 melanoma, 4.57 µM; in the assay with SF-268 CNS, above 100 µM; with KM12 colon it was above 100 µM; in the assay with MDA-MB-231 breast, 52.3 µM and > 10 µM. The TGI in the assay on HL-60(TB) leukemia was 4.13 µM; in the assay with OVCAR-3 ovarian it was > 25.6 µM and 4.44 µM; with NCI-H460 lung it was above 100 µM; with NCI-H522 lung, 3.53 µM.
On to `COc1cc(OC)cc(-c2cncn2-c2ccc(-c3nc4cc(OC)c(OC)c(OC)c4s3)cc2)c1`, for which the GI50 with HOP-62 NSCLC is 26.4 µM; with TK-10 renal it was 26.4 µM; with UACC-257 melanoma it was 20.5 µM; with SF-268 CNS it was 22.1 µM; in the assay with KM12 colon it was 5.54 µM; in the assay with MDA-MB-231 breast, 19.2 µM. For the same compound, the GI50 with HL-60(TB) leukemia is 2.43 µM; in the assay on OVCAR-3 ovarian, 6.07 µM; in the assay with NCI-H460 lung, 7.46 µM; in the assay on NCI-H522 lung it was 11.8 µM. Besides, the TGI in the assay on HOP-62 NSCLC, with TK-10 renal, with UACC-257 melanoma, with SF-268 CNS, in the assay on KM12 colon and in the assay on MDA-MB-231 breast was above 100 µM throughout. Besides, the TGI with HL-60(TB) leukemia was above 100 µM; in the assay on OVCAR-3 ovarian it was 26.7 µM; in the assay with NCI-H460 lung, above 100 µM; with NCI-H522 lung, above 100 µM.
As to `CCN1CCN(C(=O)[C@]23CCC(C)(C)C[C@@H]2C2=CC[C@@H]4[C@@]5(C)C/C(=C/c6cccnc6)C(=O)C(C)(C)[C@@H]5CC[C@@]4(C)[C@]2(C)CC3)CC1`, the GI50 in the assay on HOP-62 NSCLC is 1.88 µM; with TK-10 renal it was 3.86 µM; in the assay with UACC-257 melanoma, 1.62 µM; in the assay on SF-268 CNS it was 1.59 µM; in the assay on KM12 colon it was 1.58 µM; with MDA-MB-231 breast it was 1.4 µM. Besides, the GI50 was 0.443 µM in the assay with HL-60(TB) leukemia, 1.51 µM with OVCAR-3 ovarian, 1.39 µM with NCI-H460 lung and 1.61 µM with NCI-H522 lung. Also, the TGI amounted to 3.75 µM with HOP-62 NSCLC; 15.4 µM with TK-10 renal; 4.29 µM with UACC-257 melanoma; 4.79 µM with SF-268 CNS; 3.26 µM in the assay with KM12 colon; 2.84 µM in the assay on MDA-MB-231 breast. The TGI in the assay on HL-60(TB) leukemia came to 3.34 µM; with OVCAR-3 ovarian, 2.95 µM; with NCI-H460 lung, 2.93 µM; in the assay with NCI-H522 lung, 3.75 µM.
Consider `COc1ccc(/C=C/C(=O)c2ccc(Nc3ccnc4cc(Cl)ccc34)cc2)cc1`, for which the GI50 with HOP-62 NSCLC is above 100 µM; with TK-10 renal, above 100 µM; in the assay on UACC-257 melanoma it was above 100 µM; in the assay on SF-268 CNS it was above 100 µM; in the assay with KM12 colon it was above 79.4 µM; with MDA-MB-231 breast it was 31.1 µM. Further, the GI50 in the assay on OVCAR-3 ovarian, in the assay on NCI-H460 lung and in the assay on NCI-H522 lung was above 100 µM in each case. For the same compound, the TGI in the assay on HOP-62 NSCLC, in the assay with TK-10 renal, in the assay on UACC-257 melanoma, in the assay with SF-268 CNS, in the assay on KM12 colon and with MDA-MB-231 breast was above 100 µM in each case. The TGI is above 35 µM in the assay with HL-60(TB) leukemia, above 100 µM in the assay on OVCAR-3 ovarian, above 100 µM with NCI-H460 lung and above 100 µM with NCI-H522 lung.
Turning to `C[n+]1ccc(-c2c3nc(c(-c4ccc5c(ccc[n+]5C)c4)c4ccc([nH]4)c(-c4cc[n+](C)cc4)c4nc(c(-c5ccc6c(ccc[n+]6C)c5)c5ccc2[nH]5)C=C4)C=C3)cc1`, the GI50 in the assay on HOP-62 NSCLC was 13.3 µM; with TK-10 renal, 10.1 µM; with UACC-257 melanoma it was 12.9 µM; with SF-268 CNS, above 50 µM; with KM12 colon, 23.1 µM; with MDA-MB-231 breast it was 16.3 µM. In addition, the GI50 is 9.19 µM in the assay on HL-60(TB) leukemia, 7.91 µM in the assay with OVCAR-3 ovarian, 16.9 µM in the assay with NCI-H460 lung and above 50 µM with NCI-H522 lung. The TGI with HOP-62 NSCLC is above 50 µM; in the assay with TK-10 renal, above 50 µM; in the assay with UACC-257 melanoma, 48.5 µM; in the assay on SF-268 CNS, above 50 µM; in the assay on KM12 colon, above 50 µM; in the assay on MDA-MB-231 breast, above 50 µM. Also, the TGI in the assay on HL-60(TB) leukemia was 17.2 µM; in the assay on OVCAR-3 ovarian, 40.5 µM; in the assay with NCI-H460 lung it was above 50 µM; in the assay on NCI-H522 lung, above 50 µM.
Take `O=C(O)/C=C\C(=O)Nc1ccc2c(c1)C(=O)c1cc(F)ccc1-2`: the TGI in the assay with HOP-62 NSCLC, in the assay with TK-10 renal, in the assay on UACC-257 melanoma, in the assay with SF-268 CNS, in the assay on KM12 colon and in the assay on MDA-MB-231 breast was above 100 µM throughout. The TGI in the assay with HL-60(TB) leukemia, in the assay on OVCAR-3 ovarian, with NCI-H460 lung and in the assay on NCI-H522 lung was above 100 µM throughout.

The values are drawn from PubChem BioAssay (NCI).
